Assay results reported in patent US10131652B2, “Pyrimidinyloxy benzene derivatives as herbicides” (E. I. DU PONT DE NEMOURS AND COMPANY, priority 2014, dated 2018).

Columns and labels:
Test in all cases: Test F pre-/postemergence plant response
Type in all cases: in vivo
Conditions in all cases: scale 0 to 100
[1] = tested on: arrowleaf sida (Sida rhombifolia)
In short: (§1)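 Values are visual ratings, where 100 is complete control and 0 is no effect, given after 14 to 21 days of greenhouse growth. Test chemicals in a non-phytotoxic, surfactant-containing solvent were sprayed on soil just after planting or on emerged seedlings at the 1- to 4-leaf stage.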

[2] = tested on: barnyardgrass (Echinochloa crus-galli)
In short: as §1

[3] = tested on: dayflower (Virginia (VA) dayflower, Commelina virginica)
In short: as §1

[4] = tested on: field bindweed (Convolvulus arvensis)
In short: as §1

[5] = tested on: hairy beggarticks (Bidens pilosa)
In short: as §1

[6] = tested on: sandbur (southern sandbur, Cenchrus echinatus)
In short: as §1

soybean (Glycine max) = tested on: soybean (Glycine max)
In short: as §1

[7] = tested on: waterhemp (common waterhemp, Amaranthus rudis)
In short: as §1

[8] = tested on: wild poinsettia (Euphorbia heterophylla)
In short: as §1

FC(F)c1cc(-c2ccccc2Oc2ncc(Br)cn2)on1 [Compound 212]
Plant response rating, Arrowleaf Sida ([1]; 16 g ai/ha Postemergence): 75
Plant response rating, Arrowleaf Sida ([1]; 31 g ai/ha Postemergence): 70
Plant response rating, Arrowleaf Sida ([1]; 62 g ai/ha Postemergence): 85
Plant response rating, Arrowleaf Sida ([1]; 125 g ai/ha Postemergence): 100
Plant response rating, Barnyardgrass ([2]; 16 g ai/ha Postemergence): 0
Plant response rating, Barnyardgrass ([2]; 31 g ai/ha Postemergence): 0
Plant response rating, Barnyardgrass ([2]; 62 g ai/ha Postemergence): 0
Plant response rating, Barnyardgrass ([2]; 125 g ai/ha Postemergence): 10
Plant response rating, Dayflower, VA ([3]; 16 g ai/ha Postemergence): 30
Plant response rating, Dayflower, VA ([3]; 31 g ai/ha Postemergence): 20
Plant response rating, Dayflower, VA ([3]; 62 g ai/ha Postemergence): 40
Plant response rating, Dayflower, VA ([3]; 125 g ai/ha Postemergence): 50
Plant response rating, Field Bindweed ([4]; 16 g ai/ha Postemergence): 30
Plant response rating, Field Bindweed ([4]; 31 g ai/ha Postemergence): 40
Plant response rating, Field Bindweed ([4]; 62 g ai/ha Postemergence): 60
Plant response rating, Field Bindweed ([4]; 125 g ai/ha Postemergence): 70
Plant response rating, Beggarticks ([5]; 16 g ai/ha Postemergence): 25
Plant response rating, Beggarticks ([5]; 31 g ai/ha Postemergence): 40
Plant response rating, Beggarticks ([5]; 62 g ai/ha Postemergence): 40
Plant response rating, Beggarticks ([5]; 125 g ai/ha Postemergence): 40
Plant response rating, Sandbur ([6]; 16 g ai/ha Postemergence): 0
Plant response rating, Sandbur ([6]; 31 g ai/ha Postemergence): 0
Plant response rating, Sandbur ([6]; 62 g ai/ha Postemergence): 0
Plant response rating, Sandbur ([6]; 125 g ai/ha Postemergence): 10
Plant response rating, Soybean (soybean (Glycine max); 16 g ai/ha Postemergence): 50
Plant response rating, Soybean (soybean (Glycine max); 31 g ai/ha Postemergence): 50
Plant response rating, Soybean (soybean (Glycine max); 62 g ai/ha Postemergence): 75
Plant response rating, Soybean (soybean (Glycine max); 125 g ai/ha Postemergence): 95
Plant response rating, Waterhemp ([7]; 16 g ai/ha Postemergence): 90
Plant response rating, Waterhemp ([7]; 31 g ai/ha Postemergence): 90
Plant response rating, Waterhemp ([7]; 62 g ai/ha Postemergence): 95
Plant response rating, Waterhemp ([7]; 125 g ai/ha Postemergence): 100
Plant response rating, Poinsettia, Wild ([8]; 16 g ai/ha Postemergence): 35
Plant response rating, Poinsettia, Wild ([8]; 31 g ai/ha Postemergence): 40
Plant response rating, Poinsettia, Wild ([8]; 62 g ai/ha Postemergence): 50
Plant response rating, Poinsettia, Wild ([8]; 125 g ai/ha Postemergence): 60

Fc1ccc(Oc2ncc(Cl)cn2)c(-c2cc(C(F)(Cl)Cl)on2)c1 [Compound 221]
Plant response rating, Arrowleaf Sida ([1]; 16 g ai/ha Postemergence): 80
Plant response rating, Arrowleaf Sida ([1]; 31 g ai/ha Postemergence): 90
Plant response rating, Arrowleaf Sida ([1]; 62 g ai/ha Postemergence): 98
Plant response rating, Arrowleaf Sida ([1]; 125 g ai/ha Postemergence): 98
Plant response rating, Barnyardgrass ([2]; 16 g ai/ha Postemergence): 15
Plant response rating, Barnyardgrass ([2]; 31 g ai/ha Postemergence): 25
Plant response rating, Barnyardgrass ([2]; 62 g ai/ha Postemergence): 30
Plant response rating, Barnyardgrass ([2]; 125 g ai/ha Postemergence): 70
Plant response rating, Dayflower, VA ([3]; 16 g ai/ha Postemergence): 60
Plant response rating, Dayflower, VA ([3]; 31 g ai/ha Postemergence): 70
Plant response rating, Dayflower, VA ([3]; 62 g ai/ha Postemergence): 80
Plant response rating, Dayflower, VA ([3]; 125 g ai/ha Postemergence): 80
Plant response rating, Field Bindweed ([4]; 16 g ai/ha Postemergence): 70
Plant response rating, Field Bindweed ([4]; 31 g ai/ha Postemergence): 75
Plant response rating, Field Bindweed ([4]; 125 g ai/ha Postemergence): 80
Plant response rating, Beggarticks ([5]; 16 g ai/ha Postemergence): 50
Plant response rating, Beggarticks ([5]; 31 g ai/ha Postemergence): 60
Plant response rating, Beggarticks ([5]; 62 g ai/ha Postemergence): 70
Plant response rating, Beggarticks ([5]; 125 g ai/ha Postemergence): 70
Plant response rating, Sandbur ([6]; 16 g ai/ha Postemergence): 0
Plant response rating, Sandbur ([6]; 31 g ai/ha Postemergence): 0
Plant response rating, Sandbur ([6]; 62 g ai/ha Postemergence): 0
Plant response rating, Sandbur ([6]; 125 g ai/ha Postemergence): 0
Plant response rating, Soybean (soybean (Glycine max); 16 g ai/ha Postemergence): 60
Plant response rating, Soybean (soybean (Glycine max); 31 g ai/ha Postemergence): 95
Plant response rating, Soybean (soybean (Glycine max); 62 g ai/ha Postemergence): 98
Plant response rating, Soybean (soybean (Glycine max); 125 g ai/ha Postemergence): 95
Plant response rating, Waterhemp ([7]; 16 g ai/ha Postemergence): 90
Plant response rating, Waterhemp ([7]; 31 g ai/ha Postemergence): 98
Plant response rating, Waterhemp ([7]; 62 g ai/ha Postemergence): 95
Plant response rating, Waterhemp ([7]; 125 g ai/ha Postemergence): 100
Plant response rating, Poinsettia, Wild ([8]; 16 g ai/ha Postemergence): 65
Plant response rating, Poinsettia, Wild ([8]; 31 g ai/ha Postemergence): 75
Plant response rating, Poinsettia, Wild ([8]; 62 g ai/ha Postemergence): 70
Plant response rating, Poinsettia, Wild ([8]; 125 g ai/ha Postemergence): 80
